Columns and labels:
[1] = test system: Staphylococcus aureus; experiment: paper disk diffusion, Staphylococcus aureus; format: cell-based; conditions: paper disk (6 mm in diameter) containing 30 μg on agar plate
Procedure: (§1) No evidence of activity against eukaryotes, such as S. cerevisiae or cytotoxicity against human leukemia (HL-60) was observed.
(§2) Antimicrobial activity was measured by the conventional paper disk diffusion method. See Bauer, A. W.; Kirby, W. M.; Sherris, J. C.; Turck, M. Am. J. Clin. Pathol. 1966, 45, 493-96; and Hachem, C. Y.; Clarridge, J. E.; Reddy, R.; Flamm, R.; Evans, D. G.; Tanaka, S. K.; Graham, D. Y. Diagn. Microbiol. Infect. Dis. 1996, 24, 37-41. The bioactive fractions during the purification procedures were confirmed by activity against Streptomyces padanus, while pure rhodostreptomycins were tested for activity against S. padanus, Escherichia coli, Staphylococcus aureus, Bacillus subtilis, Helicobacter pylori and Saccharomyces cerevisiae. In this method, each paper disk (Whatman AA Discs, 6 mm) containing the extract or 30 μg of the pure compounds was placed directly onto an agar plate that had been freshly inoculated with a lawn of the test organism. The activity was estimated by measuring the diameters of the inhibition zones.

[2] = test system: Helicobacter pylori; experiment: paper disk diffusion, Helicobacter pylori; format: cell-based; conditions: paper disk (6 mm in diameter) containing 30 μg on agar plate
Procedure: as §1, §2

[3] = solubility in solvents; format: physicochemical
[4] = test system: Streptomyces padanus; experiment: paper disk diffusion, Streptomyces padanus; format: cell-based; conditions: paper disk (6 mm in diameter) containing 30 μg on agar plate
Procedure: as §1, §2

[5] = test system: Escherichia coli; experiment: paper disk diffusion, Escherichia coli; format: cell-based; conditions: paper disk (6 mm in diameter) containing 30 μg on agar plate
Procedure: as §1, §2

[6] = test system: Saccharomyces cerevisiae; experiment: paper disk diffusion, Saccharomyces cerevisiae; format: cell-based; conditions: paper disk (6 mm in diameter) containing 30 μg on agar plate
Procedure: as §1, §2

[7] = test system: Bacillus subtilis; experiment: paper disk diffusion, Bacillus subtilis; format: cell-based; conditions: paper disk (6 mm in diameter) containing 30 μg on agar plate
Procedure: as §1, §2

[8] = test system: Gram-negative and Gram-positive bacteria; experiment: conventional disk assays on microbial lawns, overall; format: cell-based; conditions: rhodostreptomycin B (2) compared with rhodostreptomycin A (1)
Procedure: as §1, §2

SMILES | diameter of inhibition zone [1] | diameter of inhibition zone [2] | solubility in chloroform or n-hexane [3] | solubility in water [3] | diameter of inhibition zone [4] | diameter of inhibition zone [5] | diameter of inhibition zone [6] | diameter of inhibition zone [7] | activity relative to the other isomer [8]
CN[C@@H]1[C@H](O[C@H]2[C@H](O[C@H]3[C@H](O)[C@@H](O)[C@H](N=C(N)N)[C@@H](O)[C@@H]3N=C(N)N)O[C@H](C)[C@@]23OC(=O)N[C@H]3O)O[C@@H](CO)[C@H](O)[C@H]1O [Rhodostreptomycin 1, Rhodostreptomycin A] | 9 mm | 10 mm | not in chloroform or n-hexane | highly soluble in water | 15 mm | 8 mm | 0 mm | 8 mm | 
CN[C@@H]1[C@H](O[C@H]2[C@H](O[C@H]3[C@H](O)[C@@H](O)[C@H](N=C(N)N)[C@@H](O)[C@@H]3N=C(N)N)O[C@H](C)[C@@]23OC(=O)N[C@@H]3O)O[C@@H](CO)[C@H](O)[C@H]1O [Rhodostreptomycin 2, Rhodostreptomycin B] | 14 mm | 18 mm | not in chloroform or n-hexane | highly soluble in water | 18 mm | 12 mm | 0 mm | 14 mm | more potent
